Source: patent US20060052459A1, “Antifungal medicaments comprising arylamidine derivatives” (priority 2002, published 2006)
Read-outs that look alike come from different tables or passages of the source.

Key:
[1] = tested on: Aspergillus fumigatus strain IP 864.64; assay: In vitro antifungal growth inhibition on microtitre plates (optical density 590 nm), compounds alone or as mixtures (Wadley method); assay type: cell-based; settings: for inhibition at 0.026 µg/mL / inhibition at 0.098 µg/mL / inhibition at 0.39 µg/mL / inhibition at 1.562 µg/mL / inhibition at 6.25 µg/mL / inhibition at 25 µg/mL / inhibition at 100 µg/mL / EC50: Aspergillus fumigatus; for inhibition at 0.026 µg/mL: dose 0.026 μg/ml; for inhibition at 0.098 µg/mL: dose 0.098 μg/ml; for inhibition at 0.39 µg/mL: dose 0.39 μg/ml; for inhibition at 1.562 µg/mL: dose 1.562 μg/ml; for inhibition at 6.25 µg/mL: dose 6.25 μg/ml; for inhibition at 25 µg/mL: dose 25 μg/ml; for inhibition at 100 µg/mL: dose 100 μg/ml
Procedure: (§1) The following fungi were used for this study: Candida albicans strains IP 48.72 (ATCC 10231) and Aspergillus fumigatus strain IP 864.64 obtained from the Collection Nationale de Cultures de Microorganismes (CNCM) of the Institut Pasteur. The strains are cultured on Yeast Extract-Peptone-Dextrose (YEPD) agar medium comprising 0.5% yeast extract, 0.5% bactopeptone, 2% glucose and 2% agar at 30° C. and in the dark.
(§2) All these compounds were prepared in a DMSO solution at a final concentration of 100 mg/ml. The stock solutions are stored at −20° C. up to the time of use.
(§3) The trials are carried out in RPMI 1640 medium with no sodium bicarbonate, but with L-glutamine buffered with 0.165 mol per litre of 3-[N-morpholino]propanesulphonic acid (MOPS), enriched (<>) or otherwise (<>) with 2% glucose. The pH of this medium is adjusted to 7.0. The medium is sterilized by filtration (0.22 μm) and stored at 4° C. up to the time of use.
(§4) All the antifungal tests are carried out on microtitre plates. The initial suspensions of spores are prepared in a sterile solution containing 0.85% NaCl, supplemented with Tween 80 at 0.01%. These initial suspensions are then diluted in the culture medium (RPMI 1640 enriched or otherwise with 2% glucose) to a final concentration of 10^4 spores per ml. The measurements of viability of each inoculum are verified by subcultures of a volume of 300 μl on YEPD agar medium.
(§5) The antifungal compounds are tested in a range of concentrations ranging from 0.026 to 100 μg of active ingredient/ml. These antifungal compounds are then diluted in RPMI 1640 medium enriched or otherwise with 2% glucose. A final DMSO concentration of 0.2% is used throughout the measurements. Each trial is carried out on a series of dilutions of antifungal compounds, in duplicate. The antifungal dilutions (0.1 ml) and the fungal inoculum (0.1 ml) are added to each of the wells of the microtitre plate. The plates are then read with a spectrophotometer (ELX 800UV Bio-Tek Instruments, Inc) at a wavelength of 590 nm. The plates are read immediately after (t=0) and after 48 hours' incubation at 30° C. and in the dark. The optical density values obtained are correlated with fungal growth between the times t=0 and t=48 hours. The optical density values are used to calculate the percentage inhibition of growth for each concentration of antifungals by comparison with the control. The values are then used to plot a dose-response curve and the EC50 value is determined for each fungus and each compound with the aid of the Grafit 5.0® software (Erithacus software Ltd).
(§6) The method which was used to measure the type of interaction existing between the antifungal compounds in the form of mixtures is the Wadley method.
(§7) In the Wadley approach, the dose-response curve for each of the compounds A and B, and for the mixture AB, is constructed. The EC50 is calculated for each compound taken individually and for the mixture. If a and b are the absolute quantities of the compounds A and B in the mixture (a=1, b=1, a+b=2 under our conditions), the expected effective concentration (EC50exp) may be calculated in the following manner: EC50exp=(a+b)/[a/EC50A)+b/(EC50B)
(§8) The Wadley approach may be used to estimate the type of interaction existing between the fungal compounds, regardless of their concentration. Its reliability is not dependent on the percentage inhibition. The type of interaction between two compounds is given by the level of interaction (LI) which corresponds to the ratio between the expected effective concentration (EC50exp) and that observed (EC50obs) of the mixture. The nature of the interaction obtained by the Wadley formula is presented in Table 1 (see U. Gisi, Synergistic interaction in fungicide mixtures, 1996. Phytopathology 86, 1273-1279) below.
(§9) The experimental conditions are the same as previously described.

[2] = tested on: Candida albicans strains IP 48.72 (ATCC 10231); assay: as above; assay type: cell-based; settings: for inhibition at 0.026 µg/mL / inhibition at 0.098 µg/mL / inhibition at 0.39 µg/mL / inhibition at 1.562 µg/mL / inhibition at 6.25 µg/mL / inhibition at 25 µg/mL / inhibition at 100 µg/mL / EC50: Candida albicans; for inhibition at 0.026 µg/mL: dose 0.026 μg/ml; for inhibition at 0.098 µg/mL: dose 0.098 μg/ml; for inhibition at 0.39 µg/mL: dose 0.39 μg/ml; for inhibition at 1.562 µg/mL: dose 1.562 μg/ml; for inhibition at 6.25 µg/mL: dose 6.25 μg/ml; for inhibition at 25 µg/mL: dose 25 μg/ml; for inhibition at 100 µg/mL: dose 100 μg/ml
Procedure: as §1, §2, §3, §4, §5, §6, §7, §8, §9

[3] = IP864.64, 48 h, minimal RPMI 1640 medium (MM), 48 hours at 30° C.
[4] = IP864.64, 48 h, rich RPMI 1640 medium (RM), 48 hours at 30° C.
[5] = IP864.64, 48 h, second study, strain IP 864.64, RPMI 1640 medium enriched with 2% glucose, 48 hours at 30° C., read-out: EC50
[6] = ATCC10231, 48 h, minimal RPMI 1640 medium (MM), 48 hours at 30° C.
[7] = ATCC10231, 48 h, rich RPMI 1640 medium (RM), 48 hours at 30° C.
[8] = ATCC10231, 48 h, minimal RPMI 1640 medium (MM), 48 hours at 30° C., used alone, read-out: EC50
[9] = ATCC10231, 48 h, rich RPMI 1640 medium (RM), 48 hours at 30° C., used alone, read-out: EC50
[10] = ATCC10231, 48 h, second study, strain IP 48.72, RPMI 1640 medium enriched with 2% glucose, 48 hours at 30° C., read-out: EC50

SMILES | inhibition at 0.026 µg/mL [1, 3] | inhibition at 0.026 µg/mL [1, 4] | inhibition at 0.098 µg/mL [1, 3] | inhibition at 0.098 µg/mL [1, 4] | inhibition at 0.39 µg/mL [1, 3] | inhibition at 0.39 µg/mL [1, 4] | inhibition at 1.562 µg/mL [1, 3] | inhibition at 1.562 µg/mL [1, 4] | inhibition at 6.25 µg/mL [1, 3] | inhibition at 6.25 µg/mL [1, 4] | inhibition at 25 µg/mL [1, 3] | inhibition at 25 µg/mL [1, 4] | inhibition at 100 µg/mL [1, 3] | inhibition at 100 µg/mL [1, 4] | EC50 [1, 5] | inhibition at 0.026 µg/mL [2, 6] | inhibition at 0.026 µg/mL [2, 7] | inhibition at 0.098 µg/mL [2, 6] | inhibition at 0.098 µg/mL [2, 7] | inhibition at 0.39 µg/mL [2, 6] | further results
CCN(C)C=Nc1cc(C)c(Oc2ccc(Cl)c(C(F)(F)F)c2)cc1C [Compound I.1, N-ethyl-N-methyl-N′-[4-(4-chloro-3-trifluoromethylphenoxy)-2,5-dimethylphenyl]imidoformamide] | 1% | 2.24% | 57.9% | 23.1% | 80.1% | 51.1% | 94.6% | 97.4% | 97.1% | 98.1% | 98.4% | 98.1% | 98.1% | 97.4% | 0.179 mg/L | 4.6% | 12.6% | 7% | 27.3% | 46.1% | EC50 ([1]; IP864.64, 48 h, minimal RPMI 1640 medium (MM), 48 hours at 30° C., used alone, read-out: EC50): 0.1 mg/L; EC50 ([1]; IP864.64, 48 h, rich RPMI 1640 medium (RM), 48 hours at 30° C., used alone, read-out: EC50): 0.31 mg/L; EC50 ([1]; IP864.64, on minimal (MM) or rich (RM) RPMI 1640 medium, summary in conclusions, read-out: EC50 values): 0.1 to 0.5 mg/L; activity compared with itraconazole (compound II.2) ([1]; MM or RM medium): equivalent; EC50 compared with that of compound II.2 ([1]; second study, IP 864.64, enriched medium): similar; inhibition at 0.39 µg/mL [2, 7]: 43.6%; inhibition at 1.562 µg/mL [2, 6]: 96.2%; inhibition at 1.562 µg/mL [2, 7]: 96.9%; inhibition at 6.25 µg/mL [2, 6]: 98.7%; inhibition at 6.25 µg/mL [2, 7]: 99.5%; inhibition at 25 µg/mL [2, 6]: 99.2%; inhibition at 25 µg/mL [2, 7]: 99.5%; inhibition at 100 µg/mL [2, 6]: 98.1%; inhibition at 100 µg/mL [2, 7]: 98.8%; EC50 [2, 8]: 0.41 mg/L; EC50 [2, 9]: 0.3 mg/L; EC50 [2, 10]: 0.635 mg/L; EC50 ([2]; ATCC10231, on minimal (MM) or rich (RM) RPMI 1640 medium, summary in conclusions, read-out: EC50 values): 0.1 to 0.5 mg/L; activity compared with fluconazole (compound II.1) ([2]; MM or RM medium): at least equivalent
OC(Cn1cncn1)(Cn1cncn1)c1ccc(F)cc1F [Compound II.1, fluconazole] | 4.8% | 11.2% | 4.8% | 20.7% | 5.8% | 25.9% | 8.7% | 27.6% | 7.7% | 28.4% | 23.1% | 48.3% | 41.4% | 46.6% | 125 mg/L | 2.1% | 11.1% | 9.7% | 32.5% | 38.5% | EC50 ([1]; IP864.64, 48 h, minimal RPMI 1640 medium (MM), 48 hours at 30° C., extrapolated with Grafit 5.0, read-out: EC50 (extrapolated from the dose-response curves)): 575 mg/L; EC50 ([1]; IP864.64, 48 h, rich RPMI 1640 medium (RM), 48 hours at 30° C., extrapolated with Grafit 5.0, read-out: EC50 (extrapolated from the dose-response curves)): 125 mg/L; inhibition at 0.39 µg/mL [2, 7]: 72.6%; inhibition at 1.562 µg/mL [2, 6]: 64.7%; inhibition at 1.562 µg/mL [2, 7]: 86.8%; inhibition at 6.25 µg/mL [2, 6]: 77.7%; inhibition at 6.25 µg/mL [2, 7]: 94%; inhibition at 25 µg/mL [2, 6]: 81.9%; inhibition at 25 µg/mL [2, 7]: 95.3%; inhibition at 100 µg/mL [2, 6]: 91.6%; inhibition at 100 µg/mL [2, 7]: 36.1%; EC50 [2, 8]: 0.96 mg/L; EC50 [2, 9]: 0.19 mg/L; EC50 [2, 10]: 0.354 mg/L
